Source: patent US20100113421A1, “NON-NUCLEOSIDE REVERSE TRANSCRIPTASE INHIBITORS” (priority 2006, published 2010)

Key:
[1] = test system: mutant strain containing both the K103N and Y181C mutations; assay: Spread assay, mutant strain containing both K103N and Y181C; assay type: cell-based, HIV; conditions: Human immunodeficiency virus 1; analogous spread assay, K103N and Y181C double mutant strain; read-out: CIC95
Protocol: (§1) Assays for the inhibition of acute HIV-1 infection of T-lymphoid cells (alternatively referred to herein as the “spread assay”) were conducted in accordance with Vacca, J. P. et al., Proc. Natl. Acad. Sci. USA 1994, 91: 4096. The assays (using 10% FBS) tested for inhibition of wild type HIV-1 and of HIV strains containing the Y181C or K103N mutation. […] (Note that the compound of Example 6 was tested only up to a 833 nM concentration and the CIC95 value was determined to be >833 nM. The compound of Example 78 was not tested in the Y1818C assay.) The compounds of Examples 1 to 119 (including Examples 70A and 70B) had CIC95 values of less than 1000 nanomolar in the assay employing the K103N mutant strain. In an analogous assay employing a mutant strain containing both the K103N and Y181C mutations, the compounds of Examples 70A, 70B and 78-115 had CIC95 values of less than 1000 nanomolar.

[2] = test system: HIV strain containing the Y181C mutation; assay: Spread assay, Y181C mutant strain; assay type: cell-based; conditions: Human immunodeficiency virus 1; spread assay, 10% FBS, Y181C mutant strain; read-out: CIC95
Protocol: as §1

In the case of Cc1c(C(=O)N2CCCc3sccc3C2)[nH]c(C(N)=O)c1S(=O)(=O)c1cc(Cl)cc(Cl)c1 [Example 84, 3-[(3,5-dichlorophenyl)sulfonyl]-4-methyl-5-(4,6,7,8-tetrahydro-5H-thieno[3,2-c]azepin-5-ylcarbonyl)-1H-pyrrole-2-carboxamide], the IC95 [1] is reported as under 1 µM and the IC95 [2] is reported as under 8 µM.
Cc1cc(C)cc(S(=O)(=O)c2c(C(N)=O)[nH]c(C(=O)N3CCCc4sccc4C3)c2C)c1 [Example 80, 3-[(3,5-Dimethylphenyl)sulfonyl]-4-methyl-5-(4,6,7,8-tetrahydro-5H-thieno[3,2-c]azepin-5-ylcarbonyl)-1H-pyrrole-2-carboxamide] was tested, and the IC95 [1] was under 1 µM and the IC95 [2] was under 8 µM.
Cc1cc(C)cc(S(=O)(=O)c2c(C(N)=O)[nH]c(C(=O)N(C)Cc3ccnc(Cl)c3F)c2C)c1 [Example 107, N5-[(2-chloro-3-fluoropyridin-4-yl)methyl]-3-[(3,5-dimethylphenyl)sulfonyl]-N5,4-dimethyl-1H-pyrrole-2,5-dicarboxamide] was tested, and the IC95 [1] was under 1 µM and the IC95 [2] was under 8 µM.
Cc1c(C(=O)N2CCCc3cc(O)ccc3C2)[nH]c(C(N)=O)c1S(=O)(=O)c1cc(Cl)cc(Cl)c1 [Example 86, 3-[(3,5-dichlorophenyl)sulfonyl]-4-methyl-5-(7-hydroxy-1,3,4,5-tetrahydro-2H-2-benzazepin-2-ylcarbonyl)-1H-pyrrole-2-carboxamide] showed an IC95 [1] of under 1 µM and an IC95 [2] of under 8 µM.
With Cc1cc(C)cc(S(=O)(=O)c2c(C(N)=O)[nH]c(C(=O)N(C)Cc3ccncc3Cl)c2C)c1 [Example 105, N5-[(3-chloropyridin-4-yl)methyl]-3-[(3,5-dimethylphenyl)sulfonyl]-N5,4-dimethyl-1H-pyrrole-2,5-dicarboxamide] the IC95 [1] was under 1 µM and the IC95 [2] was under 8 µM.
For Cc1c(C(=O)N2CCCc3sc(Cl)cc3C2)[nH]c(C(N)=O)c1S(=O)(=O)c1cc(Cl)cc(Cl)c1 [Example 96, 3-[(3,5-Dichlorophenyl)sulfonyl]-4-methyl-5-[(2-chloro-4,6,7,8-tetrahydro-5H-thieno[3,2-c]azepin-5-yl)carbonyl]-1H-pyrrole-2-carboxamide], the IC95 [1] was under 1 µM and the IC95 [2] was under 8 µM.
Cc1cc(C)cc(S(=O)(=O)c2c(C(N)=O)[nH]c(C(=O)N(C)Cc3cc(N)ncc3F)c2C)c1 [Example 103, N5-[(2-amino-5-fluoropyridin-4-yl)methyl]-3-[(3,5-dimethylphenyl)sulfonyl]-N5,4-dimethyl-1H-pyrrole-2,5-dicarboxamide] gave an IC95 [1] of under 1 µM and an IC95 [2] of under 8 µM.
Compound CC(C)c1c(C(=O)N(C)Cc2ccnc(N)c2)[nH]c(C(N)=O)c1S(=O)(=O)c1cc(F)cc(F)c1 [Example 100, N5-[(2-aminopyridin-4-yl)methyl]-3-[(3,5-difluorophenyl)sulfonyl]-4-isopropyl-N5-methyl-1H-pyrrole-2,5-dicarboxamide] has an IC95 [1] of under 1 µM and an IC95 [2] of under 8 µM.
For CC(C)c1c(C(=O)N(C)Cc2ccnc(Cl)c2F)[nH]c(C(N)=O)c1S(=O)(=O)c1ccccc1 [Example 108, N2-[(2-chloro-3-fluoropyridin-4-yl)methyl]-3-isopropyl-N2-methyl-4-(phenylsulfonyl)-1H-pyrrole-2,5-dicarboxamide], the IC95 [1] was under 1 µM and the IC95 [2] was under 8 µM.
With Cc1c(C(=O)N2CCCc3ccccc3C2)[nH]c(C(N)=O)c1S(=O)(=O)c1ccccc1 [Example 78, 4-Methyl-3-(phenylsulfonyl)-5-(1,3,4,5-tetrahydro-2H-2-benzazepine-2-ylcarbonyl)-1H-pyrrole-2-carboxamide] the IC95 [1] was under 1 µM.
Cc1c(C(=O)N(C)Cc2ccc(S(C)(=O)=O)cc2Cl)[nH]c(C(N)=O)c1S(=O)(=O)c1ccccc1 [Example 15, N-(2-chloro-4-methylsulfonylbenzyl)-N,3-dimethyl-4-(phenylsulfonyl)-1H-pyrrole-2,5-dicarboxamide] gave an IC95 [2] of under 8 µM.
With Cc1c(C(=O)N(C)Cc2ccccc2)[nH]c(C(N)=O)c1S(=O)(=O)c1cc(F)cc(Cl)c1 [Example 28, N-benzyl-N,3-dimethyl-4-(3-chloro-5-fluorophenylsulfonyl)-1H-pyrrole-2,5-dicarboxamide] the IC95 [2] was under 8 µM.
Cc1cc(C)cc(S(=O)(=O)c2c(C(N)=O)[nH]c(C(=O)N(C)Cc3cc4cccnc4cc3Cl)c2C)c1 [Example 48, N-[(7-chloro-6-quinolinyl)methyl]-4-[(3,5-dimethylphenyl)sulfonyl]-N,3-dimethyl-1H-pyrrole-2,5-dicarboxamide] gave an IC95 [2] of under 8 µM.
For Cc1c(C(=O)N(C)Cc2cccc(Cl)c2Cl)[nH]c(C(N)=O)c1S(=O)(=O)c1ccccc1 [Example 13, N-(2,3-dichlorobenzyl)-N,3-dimethyl-4-(phenylsulfonyl)-1H-pyrrole-2,5-dicarboxamide], the IC95 [2] was under 8 µM.
With Cc1c(C(=O)N(C)Cc2ccccc2Cl)[nH]c(C(N)=O)c1S(=O)(=O)c1cc(F)cc(Cl)c1 [Example 30, N-(2-chlorobenzyl)-N,3-dimethyl-4-(3-chloro-5-fluorophenylsulfonyl)-1H-pyrrole-2,5-dicarboxamide] the IC95 [2] was under 8 µM.
Compound Cc1c(C(=O)N(C)Cc2ccccc2Cl)[nH]c(C(N)=O)c1S(=O)(=O)c1cccc(F)c1 [Example 17, N-(2-chlorobenzyl)-N,3-dimethyl-4-(3-fluorophenylsulfonyl)-1H-pyrrole-2,5-dicarboxamide] has an IC95 [2] of under 8 µM.
Cc1c(C(=O)N(C)Cc2ccc(F)cc2Cl)[nH]c(C(N)=O)c1S(=O)(=O)c1ccccc1 [Example 4, N-(2-Chloro-4-fluorobenzyl)-N,3-dimethyl-4-(phenylsulfonyl)-1H-pyrrole-2,5-dicarboxamide] was tested, and the IC95 [2] was under 8 µM.
With CC(C)c1c(C(=O)N(C)Cc2ccc(Cl)cc2F)[nH]c(C(N)=O)c1S(=O)(=O)c1ccccc1 [Example 62, N-(4-chloro-2-fluorobenzyl)-3-isopropyl-N-methyl-4-(phenylsulfonyl)-1H-pyrrole-2,5-dicarboxamide] the IC95 [2] was under 8 µM.
In the case of Cc1cc(C)cc(S(=O)(=O)c2c(C(N)=O)[nH]c(C(=O)N(C)Cc3ccc(Cl)cc3Cl)c2C)c1 [Example 27, N-(2,4-dichlorobenzyl)-N,3-dimethyl-4-(3,5-dimethylphenylsulfonyl)-1H-pyrrole-2,5-dicarboxamide], the IC95 [2] is reported as under 8 µM.
With CC(C)c1c(C(=O)N(C)Cc2ccccc2F)[nH]c(C(N)=O)c1S(=O)(=O)c1ccccc1 [Example 61, N-(2-fluorobenzyl)-3-isopropyl-N-methyl-4-(phenylsulfonyl)-1H-pyrrole-2,5-dicarboxamide] the IC95 [2] was under 8 µM.
Work on Cc1c(C(=O)N(C)Cc2ccc(Cl)cc2Cl)[nH]c(C(=O)NCc2ccccn2)c1S(=O)(=O)c1ccccc1 [Example 74, N-(2,4-dichlorobenzyl)-N,3-dimethyl-4-(phenylsulfonyl)-N′-(2-pyridinylmethyl)-1H-pyrrole-2,5-dicarboxamide] yielded an IC95 [2] of under 8 µM.
With CC(C)c1c(C(=O)N(C)Cc2ccccc2)[nH]c(C(N)=O)c1S(=O)(=O)c1ccccc1 [Example 58, N-Benzyl-3-isopropyl-N-methyl-4-(phenylsulfonyl)-1H-pyrrole-2,5-dicarboxamide] the IC95 [2] was under 8 µM.
With Cc1c(C(=O)N(C)Cc2cc3cccnc3cc2Cl)[nH]c(C(N)=O)c1S(=O)(=O)c1cc(F)cc(Cl)c1 [Example 53, 4-[(3-chloro-5-fluorophenyl)sulfonyl]-N-[(7-chloro-6-quinolinyl)methyl]-N,3-dimethyl-1H-pyrrole-2,5-dicarboxamide] the IC95 [2] was under 8 µM.
In the case of Cc1c(C(=O)N(C)Cc2ccc(Cl)cc2Cl)[nH]c(C(N)=O)c1S(=O)(=O)c1cccc(F)c1 [Example 19, N-(2,4-dichlorobenzyl)-N,3-dimethyl-4-(3-fluorophenylsulfonyl)-1H-pyrrole-2,5-dicarboxamide], the IC95 [2] is reported as under 8 µM.
In the case of Cc1c(C(=O)N(C)Cc2cc3cccnc3cc2Cl)[nH]c(C(N)=O)c1S(=O)(=O)c1cc(F)cc(F)c1 [Example 50, N-[(7-chloro-6-quinolinyl)methyl]-4-[(3,5-difluorophenyl)sulfonyl]-N,3-dimethyl-1H-pyrrole-2,5-dicarboxamide], the IC95 [2] is reported as under 8 µM.
Cc1cc(C)cc(S(=O)(=O)c2c(C(N)=O)[nH]c(C(=O)N(C)Cc3ccc4ncccc4c3Cl)c2C)c1 [Example 47, N-[(5-chloro-6-quinolinyl)methyl]-4-[(3,5-dimethylphenyl)sulfonyl]-N,3-dimethyl-1H-pyrrole-2,5-dicarboxamide] showed an IC95 [2] of under 8 µM.
CCc1c(C(=O)N(C)Cc2ccc(Cl)cc2Cl)[nH]c(C(N)=O)c1S(=O)(=O)c1ccccc1 [Example 59, N-(2,4-dichlorobenzyl)-3-ethyl-N-methyl-4-(phenylsulfonyl)-1H-pyrrole-2,5-dicarboxamide] was tested, and the IC95 [2] was under 8 µM.
In the case of Cc1c(C(=O)N(C)Cc2cc3cccnc3cc2Cl)[nH]c(C(N)=O)c1S(=O)(=O)c1ccccc1 [Example 41, N-[(7-Chloro-6-quinolinyl)methyl]-N,3-dimethyl-4-(phenylsulfonyl)-1H-pyrrole-2,5-dicarboxamide], the IC95 [2] is reported as under 8 µM.
CNC(=O)c1[nH]c(C(=O)N(C)Cc2ccc(Cl)cc2Cl)c(C)c1S(=O)(=O)c1ccccc1 [Example 72, N-(2,4-dichlorobenzyl)-N,N′,3-trimethyl-4-(phenylsulfonyl)-1H-pyrrole-2,5-dicarboxamide] gave an IC95 [2] of under 8 µM.
In the case of Cc1cc(C)cc(S(=O)(=O)c2c(C(N)=O)[nH]c(C(=O)N(C)Cc3ccc4ncccc4c3)c2C)c1 [Example 40, 4-[(3,5-Dimethylphenyl)sulfonyl]-N,3-dimethyl-N-(6-quinolinylmethyl)-1H-pyrrole-2,5-dicarboxamide], the IC95 [2] is reported as under 8 µM.
